In paper PMC11367644, “Structural basis for TNIP1 binding to FIP200 during mitophagy” (The Journal of Biological Chemistry, 2024) one finds KD data, which are given here for one compound.

Square brackets hold non-standard residues; d marks the D form. Peptide text beside a SMILES is read from it. pS = N[C@@H](COP(=O)(O)O)C(=O)O

In assay [1] the target is T1, FIP200 claw domain K1568E (Homo sapiens, UniProt Q8TDY2, K1568E).
T1 construct: human FIP200 claw domain1490–1594 was cloned; SUMO (N, cleaved yes); made in house; host or cells: Escherichia coli Rosetta (DE3)
Nature of the assay: ITC with FIP200 claw domain mutant K1568E. The note with it: 20 °C, buffer B pH 7.0, N.D. = no detectable binding. How it is done: (§1) DNA fragment of human FIP200 claw domain1490–1594 was cloned into a modified pET28a (Novagen) plasmid, which contained an N-terminal SUMO-tag and a ULP1 protease cleavage site. All mutants were generated using a MutanBEST Kit (TaKaRa) and confirmed by DNA sequencing. The proteins were expressed in Escherichia coli Rosetta (DE3) cells (Novagen) cultured in LB medium at 37 °C to A600 = 1.0 and then shifted to 16 °C for 24 h after induction with 0.2 mM IPTG. Bacterial pellets were resuspended in buffer A (50 mM NaH2PO4 and 1 M NaCl, pH 7.0) and lysed by sonication. The crude lysate was then centrifuged at 14,000 rpm for 30 min at 4 °C. The supernatant was applied to a Ni-NTA column (QIAGEN), followed by size-exclusion chromatography using a Superdex 200 (GE Healthcare) column. After cleavage with ULP1 protease overnight at 16 °C to remove the SUMO-tag, an additional purification step was performed with a HiTrap SP FF column. The purified protein was concentrated to ∼20 mg/ml in buffer B (50 mM NaH2PO4, 150 mM NaCl, pH 7.0) and stored at −80 °C.
(§2) ITC assays were performed on a Microcal PEAQ-ITC instrument (Malvern) at 20 °C. The concentrations of proteins were determined spectrophotometrically. […] Thermodynamic data were analyzed with a single binding site model using MicroCal PEAQ-ITC Analysis Software provided by the manufacturer (Malvern).

Assay [2] has as its target T2, FIP200 claw domain K1569A (Homo sapiens, UniProt Q8TDY2, K1569A).
T2 construct: human FIP200 claw domain1490–1594 was cloned; SUMO (N, cleaved yes); made in house; host or cells: Escherichia coli Rosetta (DE3)
Nature of the assay: ITC with FIP200 claw domain mutant K1569A. The note with it: 20 °C, buffer B pH 7.0, N.D. = no detectable binding. The protocol:
as §1, §2

T2 sequence (Q8TDY2 1490-1594 K1569A): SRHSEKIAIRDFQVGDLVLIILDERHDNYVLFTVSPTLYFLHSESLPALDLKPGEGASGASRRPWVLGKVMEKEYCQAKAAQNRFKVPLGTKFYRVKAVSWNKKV
T1 sequence (Q8TDY2 1490-1594 K1568E): as the sequence (Q8TDY2 1490-1594 K1569A) above, with K79E, A80K counted along it

On to `CC(C)[C@H](NC(=O)[C@H](CCC(=O)O)NC(=O)[C@H](Cc1ccccc1)NC(=O)[C@H](CCC(=O)O)NC(=O)[C@H](COP(=O)(O)O)NC(=O)[C@H](CO)NC(=O)[C@@H](NC(=O)CNC(=O)[C@H](CO)NC(=O)[C@@H](N)CO)[C@@H](C)O)C(=O)N[C@H](C(=O)N[C@H](C(=O)N1CCC[C@H]1C(=O)N[C@@H](CCC(=O)O)C(=O)N[C@@H](CCC(=O)O)C(=O)N[C@@H](CCC(N)=O)C(=O)O)[C@@H](C)O)C(C)C` [TNIP1_pS123^ long] (H-SSGTS[pS]EFEVVTPEEQ-OH), for which the KD result in assay [1] and in assay [2] was “Weak binding” each time.
